Test results from patent publication US8470829B2 (priority 2004, dated 2013).
Read-outs that look alike come from different tables or passages of the source. Blank lines part the entries; values can stand above or below the compound they belong to.

Experiments:
androgen receptor = androgen receptor (Homo sapiens, UniProt P10275); conditions: at a concentration of 10 μmol/L; cited from earlier work
human androgen receptor [1] = molecular target: T1, human androgen receptor (Homo sapiens, UniProt P10275); assay: Measurement of agonist effect on androgen receptor (reporter gene assay, 11A11B2 cells); assay type: cell-based; conditions: compound concentration showing a transcription activity of 5% (0.1 nmol/L DHT = 100%, assay medium alone = 0%), 48 hours
T1 construct: expressed in transfected cells
T1 sequence (P10275 1-920): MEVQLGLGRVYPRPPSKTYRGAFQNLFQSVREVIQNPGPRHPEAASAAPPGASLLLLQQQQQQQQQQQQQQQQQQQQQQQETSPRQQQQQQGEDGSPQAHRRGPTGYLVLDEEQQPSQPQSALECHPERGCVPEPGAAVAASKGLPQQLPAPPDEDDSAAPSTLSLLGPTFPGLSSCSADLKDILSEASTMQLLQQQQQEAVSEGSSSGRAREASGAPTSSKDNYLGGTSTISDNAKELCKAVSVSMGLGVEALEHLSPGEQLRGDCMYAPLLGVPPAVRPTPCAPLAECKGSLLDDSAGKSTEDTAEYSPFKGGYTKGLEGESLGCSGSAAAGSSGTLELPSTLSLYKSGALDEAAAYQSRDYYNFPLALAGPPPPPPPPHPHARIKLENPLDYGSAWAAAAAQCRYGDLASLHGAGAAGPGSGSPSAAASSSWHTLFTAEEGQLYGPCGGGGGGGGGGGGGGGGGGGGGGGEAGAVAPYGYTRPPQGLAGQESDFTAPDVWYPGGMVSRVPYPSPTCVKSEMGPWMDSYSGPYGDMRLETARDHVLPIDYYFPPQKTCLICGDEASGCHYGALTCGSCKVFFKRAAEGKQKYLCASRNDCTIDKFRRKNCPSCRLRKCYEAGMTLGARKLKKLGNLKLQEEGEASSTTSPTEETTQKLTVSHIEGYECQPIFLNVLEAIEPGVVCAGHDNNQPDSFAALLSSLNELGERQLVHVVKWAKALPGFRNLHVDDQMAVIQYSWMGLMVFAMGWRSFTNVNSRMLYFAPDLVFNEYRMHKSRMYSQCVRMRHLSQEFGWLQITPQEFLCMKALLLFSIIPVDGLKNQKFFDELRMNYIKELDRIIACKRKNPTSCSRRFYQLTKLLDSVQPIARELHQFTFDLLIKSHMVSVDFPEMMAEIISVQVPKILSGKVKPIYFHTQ

[2] = prostate cancer patients treated with flutamide; cited from earlier work
human androgen receptor [3] = molecular target: T1, human androgen receptor; assay: Investigation of antagonist effect on androgen receptor (reporter gene assay, 11A11B2 cells, with DHT); assay type: cell-based
castrated rats = conditions: continuously administered to castrated rats for two weeks; cited from earlier work
[4] = with 0.1 nmol/L DHT, transcription activity rate of Test Example 1 subtracted, 11A11B2 cells, 48 hours, read-out: IC50

EC5 (human androgen receptor [1]): 0.01 µM
SMILES: CC(C)(O)C(=O)Nc1ccc([N+](=O)[O-])c(C(F)(F)F)c1 [Comparative Example 4, hydroxyflutamide]
androgen receptor transcription activity (androgen receptor): increase | concentration in the blood [2]: several

SMILES: CCOC(=O)Nc1cc(N2C(=O)N(c3ccc(C#N)c(C(F)(F)F)c3)C(=O)C2(C)C)ccc1Cl [Example 13, {2-chloro-5-[3-(4-cyano-3-trifluoromethylphenyl)-5,5-dimethyl-2,4-dioxoimidazolidin-1-yl]phenyl}carbamic acid ethyl ester]
IC50 (human androgen receptor [3]; [4]): 200 nM | EC5 (human androgen receptor [1]): >10 µM | melting point: 155 to 157 °C

SMILES: CC(=O)O[C@]1(C(C)=O)CC[C@H]2[C@@H]3C=C(Cl)C4=CC(=O)CC[C@]4(C)[C@H]3CC[C@@]21C [chlormadinone acetate]
weight of the prostate gland (castrated rats): increase

SMILES: COc1cc(N2C(=O)N(c3ccc(Cl)c(NC(=O)OC(C)C)c3)C(C)(C)C2=O)ccc1C#N [Example 25, 4-[3-(3-isopropoxycarbonylamino-4-chlorophenyl)-4,4-dimethyl-2,5-dioxoimidazolidin-1-yl]-2-methoxybenzonitrile]
IC50 (human androgen receptor [3]; [4]): 400 nM | EC5 (human androgen receptor [1]): >10 µM

SMILES: CN(C)CCOC(=O)N1CCC(N2C(=S)N(c3ccc(C#N)c(C(F)(F)F)c3)C(=O)C2(C)C)CC1 [Example 36]
IC50 (human androgen receptor [3]): 500 nM | EC5 (human androgen receptor [1]): >10 µM

SMILES: CCCNC(=O)N1CCC(N2C(=S)N(c3ccc(C#N)c(Cl)c3)C(=O)C2(C)C)CC1 [Example 41, 4-[3-(1-n-propylaminocarbonylpiperidin-4-yl)-4,4-dimethyl-5-oxo-2-thioxoimidazolidin-1-yl]-2-chlorobenzonitrile]
IC50 (human androgen receptor [3]): 500 nM | EC5 (human androgen receptor [1]): >10 µM

SMILES: CC1(C)C(=O)N(c2ccc(C#N)c(C(F)(F)F)c2)C(=S)N1c1ccc(Cl)c(NC(=N)N)c1 [Example 55, N-{2-chloro-5-[3-(4-cyano-3-trifluoromethylphenyl)-5,5-dimethyl-4-oxo-2-thioxoimidazolidin-1-yl]phenyl}guanidine]
IC50 (human androgen receptor [3]): 700 nM | EC5 (human androgen receptor [1]): >10 µM

SMILES: CC1(C)C(=O)N(c2ccc(C#N)c(C(F)(F)F)c2)C(=S)N1c1ccc(NC(=O)OCC(O)CO)nc1 (centres unmarked) [Example 70, {5-[3-(4-cyano-3-trifluoromethylphenyl)-5,5-dimethyl-4-oxo-2-thioxoimidazolidin-1-yl]pyridin-2-yl}-carbamic acid 2,3-dihydroxypropyl ester]
IC50 (human androgen receptor [3]): 500 nM | EC5 (human androgen receptor [1]): >10 µM

SMILES: CC(C)OC(=O)Nc1cc(N2C(=O)N(c3ccc(C#N)c(C(F)(F)F)c3)C(=O)C2(C)C)ccc1Cl [Example 23, 4-[3-(3-isopropoxycarbonylamino-4-chlorophenyl)-4,4-dimethyl-2,5-dioxoimidazolidin-1-yl]-2-trifluoromethylbenzonitrile]
IC50 (human androgen receptor [3]; [4]): 500 nM | EC5 (human androgen receptor [1]): >10 µM

SMILES: CC1(C)C(=O)N(c2ccc(C#N)c(C(F)(F)F)c2)C(=S)N1c1ccc(NC(=O)OCCO)nc1 [Example 60, {5-[3-(4-cyano-3-trifluoromethylphenyl)-5,5-dimethyl-4-oxo-2-thioxoimidazolidin-1-yl]pyridin-2-yl}carbamic acid 2-hydroxyethyl ester]
IC50 (human androgen receptor [3]; [4]): 300 nM | EC5 (human androgen receptor [1]): >10 µM

SMILES: CC1(C)C(=O)N(c2ccc(C#N)c(Cl)c2)C(=S)N1c1ccc2sc(NC(N)=O)nc2c1 [Example 20, {5-[3-(4-cyano-3-chlorophenyl)-5,5-dimethyl-4-oxo-2-thioxoimidazolidin-1-yl]-benzothiazol-2-yl}urea]
IC50 (human androgen receptor [3]): 100 nM | EC5 (human androgen receptor [1]): >10 µM

SMILES: COc1cc(N2C(=O)C(C)(C)N(c3ccc(Cl)c(NC(=O)OCCO)c3)C2=S)ccc1C#N [Example 48, {2-chloro-5-[3-(4-cyano-3-methoxyphenyl)-5,5-dimethyl-4-oxo-2-thioxoimidazolidin-1-yl]phenyl}-carbamic acid 2-hydroxyethyl ester]
IC50 (human androgen receptor [3]; [4]): 500 nM | EC5 (human androgen receptor [1]): >10 µM

SMILES: CN(C)CCOC(=O)Nc1ccc(N2C(=S)N(c3ccc(C#N)c(Cl)c3)C(=O)C2(C)C)cn1 [Example 69, {5-[3-(3-chloro-4-cyanophenyl)-5,5-dimethyl-4-oxo-2-thioxoimidazolidin-1-yl]pyridin-2-yl}-carbamic acid 2-dimethylaminoethyl ester]
IC50 (human androgen receptor [3]): 500 nM | EC5 (human androgen receptor [1]): >10 µM

SMILES: CC1(C)C(=O)N(c2ccc(C#N)c(Cl)c2)C(=S)N1c1cccc(S(N)(=O)=O)c1 [Example 68, 3-[3-(3-chloro-4-cyanophenyl)-5,5-dimethyl-4-oxo-2-thioxoimidazolidin-1-yl]benzenesulfonamide]
IC50 (human androgen receptor [3]; [4]): 400 nM | EC5 (human androgen receptor [1]): >10 µM

SMILES: CN(C)CCCOC(=O)Nc1cc(N2C(=O)N(c3ccc(C#N)c(C(F)(F)F)c3)C(=O)C2(C)C)ccc1Cl [Example 32, {2-chloro-5-[3-(4-cyano-3-trifluoromethylphenyl)-5,5-dimethyl-2,4-dioxoimidazolidin-1-yl]phenyl}-carbamic acid 3-dimethylaminopropyl ester]
IC50 (human androgen receptor [3]): 500 nM | EC5 (human androgen receptor [1]): >10 µM

SMILES: CC(=O)O[C@]1(C(C)=O)CC[C@H]2[C@@H]3C=C(Cl)C4=CC(=O)[C@@H]5C[C@@H]5[C@]4(C)[C@H]3CC[C@@]21C [cyproterone acetate]
weight of the prostate gland (castrated rats): increase
